Key:
[1] = system: PMA-induced oedema in mouse ear; assay: Acute contact dermatitis: TPA (PMA)-induced ear oedema in mice; assay type: in vivo; conditions: CD1 mice, 500 μg/ear topical in TPDS 30 min before TPA 0.01%, 6 h
Procedure: Groups of 5-6 CD1 mice (18-24 g) were used. • Administration of the compounds
All the macrolide compounds were dissolved in Trans-phase Delivery System (TPDS), a vehicle formed by 10% benzyl alcohol, 40% acetone and 50% isopropanol.
15 microlitres of the compounds (500 μg), dissolved in TPDS, were applied topically to the inner surface of an ear; 30 minutes later, 12 microlitres of a solution of tetradecanoylphorbol acetate (TPA) at a concentration of 0.01% dissolved in acetone were applied to the same area.
Six hours later, the animals were sacrificed by inhalation of CO2. • Evaluation of the results
Two methods were used to evaluate the auricular oedema: • a) Weight of a given portion of auricular pinna. • b) Measurement of the auricular thickness using precision spring callipers.
The degree of oedema was calculated by subtracting the weight or the thickness of the untreated ear from that of the contralateral treated ear. To determine the degree of remission of the oedema, the difference (weight or thickness) of the groups treated with TPA+macrolides was then compared with the groups treated with TPA alone.
The activity of the macrolide compounds was measured by using the modified method of Zunic et al. (1998): MDL (Lysyl) GDP, a non-toxic muramyl dipeptide derivative inhibits cytokine production by activated macrophages and protects mice from phorbol ester- and oxazolone-induced inflammation (J. Invest. Dermatol., 111(1), 77-82).
The data relating to erythromycin and azythromycin concern the treatment with a single dose of 500 μg/ear.

[2] = system: Staphylococcus aureus ATCC 29213; assay: Antibiotic activity, MIC in liquid medium; assay type: cell-based; conditions: ATCC29213, Staph. aureus ATCC 29213
Procedure: (§1) The MIC values were determined in liquid earth according to the method described in “Manual of Clinical Microbiology, 7th edition (1999), American Society for Microbiology”.

[3] = system: Streptococcus pneumoniae ATCC 49619; assay: Antibiotic activity, MIC in liquid medium; assay type: cell-based; conditions: ATCC49619, Strep. pneum ATTC 49619
Procedure: as §1

[4] = system: Enterococcus faecalis ATCC 29212; assay: Antibiotic activity, MIC or activity at 128 μg/ml; assay type: cell-based; conditions: Enter. faecalis ATCC 29212; for MIC: Enterococcus faecalis, ATCC29212
Procedure: as §1

[5] = system: Staphylococcus aureus ATCC 6538; assay: Antibiotic activity at 128 μg/ml; assay type: cell-based; conditions: Staph. aureus ATCC 6538; 128 μg/ml
Procedure: as §1

[6] = system: Streptococcus pyogenes ATCC 19615; assay: Antibiotic activity at 128 μg/ml; assay type: cell-based; conditions: Strep. pyogenes ATTC 19615; 128 μg/ml
Procedure: as §1

[7] = system: LPS-induced accumulation of neutrophils in rat lungs; assay: LPS-induced pulmonary inflammation in rats (neutrophil count in bronchial fluid wash); assay type: in vivo; conditions: Rattus norvegicus, Neutrophil, single oral dose 100, 40, 10 μmol/kg one hour before LPS 0.4 mg/kg endotracheal, 20 h, erythromycin: single oral dose 130 μmol/kg, read-out: ED50 (dose inducing 50% reduction in neutrophil count in bronchial fluid wash)
Procedure: B) LPS-Induced Pulmonary Inflammation in Rats • Administration
The rats received endotracheally, via the peroral route, a single dose of 0.4 mg/kg of LPS (E. coli, serotype 026:6). The tracheal instillation was performed under anaesthesia with halothane and, 20 hours after the endotracheal administration of LPS/saline solution, the animals were sacrificed by means of an overdose of urethane. • Washing
The lungs were washed with 4 aliquots of 5 ml each of saline solution with 10 IU ml^−1 heparin. The cell suspension was concentrated by low-speed centrifugation and the cell pellet was suspended. • Counting of the Cells and Differentiation.
The total cell count was performed in a haemocytometer.
The differential counting was performed on cytospin preparations stained with May-Grunwald-Giemsa (Tamaoki J., Tagaya E., Yamawaki I., Sakai, Nagai A., Konno K, 1995. Effect of erythromycin on endotoxin-induced microvascular leakage in the rat trachea and lungs. Am. J. Respir. Crit. Care Med., 151, 1582-8). The rats received the test compounds orally in doses of 100, 40 and 10 μmol/kg as a single administration dose orally one hour before exposure to LPS.
ED50 value is the dose that induced a 50% reduction in the neutrophil count in the bronchial fluid wash.
The data relating to erythromycin refers to an oral treatment with a single dose of 130 μmol/kg.

[8] = method a: weight of a given portion of auricular pinna
[9] = method b: auricular thickness by precision spring callipers

Compound	inhibition in vivo at 500 µg/ear [1, 8] [%]	MIC [2] [µg/mL]	MIC [3] [µg/mL]	Antibiotic activity at 128 μg/ml [4]	MIC [4] [µg/mL]	Antibiotic activity at 128 μg/ml [5]	Antibiotic activity at 128 μg/ml [6]	ED50 [7] [µmol/kg]	inhibition in vivo at 500 µg/ear [1, 9] [%]
CC[C@H]1OC(=O)[C@H](C)[C@@H](O[C@H]2C[C@@](C)(OC)[C@@H](O)[C@H](C)O2)[C@H](C)[C@@H](O[C@@H]2O[C@H](C)C[C@H](N(C)C)[C@H]2O)[C@](C)(O)C[C@@H](C)CN(C)[C@H](C)[C@@H](O)[C@]1(C)O [Azythromycin, reference compound]	40	–	–	–	–	–	–	–	–
CC[C@H]1OC(=O)[C@H](C)[C@@H](O)[C@H](C)[C@@H](O[C@@H]2O[C@H](C)C[C@H](N(C)C)[C@H]2O)C(C)(O)C[C@@H](C)[C@H](O)[C@H](C)[C@@H](O)[C@]1(C)O (stereo partly shown) [Compound 2]	36.2	> 128	> 128	not active	> 128	not active	not active	–	–
CC[C@H]1OC(=O)[C@H](C)[C@@H](O)[C@H](C)[C@@H](O[C@@H]2O[C@H](C)C[C@H]([N+](C)(C)[O-])[C@H]2O)C(C)(O)C[C@@H](C)[C@H](O)[C@H](C)[C@@H](O)[C@]1(C)O (stereo partly shown) [Compound 3]	65.2	> 128	> 128	not active	> 128	not active	not active	–	–
CC[C@H]1OC(=O)[C@H](C)[C@@H](O)[C@H](C)[C@@H](O[C@@H]2O[C@H](C)CC(N(C)CCCNCc3nccs3)[C@H]2O)C(C)(O)C[C@@H](C)[C@H](O)[C@H](C)[C@@H](O)[C@]1(C)O (stereo partly shown) [Compound 5]	53.4	–	–	–	–	–	–	–	–
CC[C@H]1OC(=O)[C@H](C)[C@@H](O)[C@H](C)[C@@H](O[C@@H]2O[C@H](C)CC(N(C)C(=O)CNCCN(C)C)[C@H]2O)C(C)(O)C[C@@H](C)[C@H](O)[C@H](C)[C@@H](O)[C@]1(C)O (stereo partly shown) [Compound 6]	30.9	–	–	–	–	–	–	–	–
CC[C@H]1OC(=O)[C@H](C)[C@@H](O)[C@H](C)[C@@H](O[C@@H]2O[C@H](C)C[C@H](N(C)CCNCCNCc3nccs3)[C@H]2O)[C@@](C)(O)C[C@@H](C)[C@H](O)[C@H](C)[C@@H](O)[C@]1(C)O [Compound 7]	45	–	–	–	–	–	–	–	–
CC[C@H]1OC(=O)[C@H](C)[C@@H](O)[C@H](C)[C@@H](O[C@@H]2O[C@H](C)C=C[C@H]2O)C(C)(O)C[C@@H](C)[C@H](O)[C@H](C)[C@@H](O)[C@]1(C)O (stereo partly shown) [Compound 9]	32.4	–	–	–	–	–	–	–	–
CC[C@H]1OC(=O)[C@H](C)[C@@H](O)[C@H](C)[C@@H](O[C@@H]2O[C@H](C)C[C@H](N(C)C)[C@H]2O)C(C)(O)C[C@@H](C)/C(=N\O)[C@H](C)[C@@H](O)[C@]1(C)O (stereo partly shown) [Compound 11]	70.2	> 128	> 128	not active	> 128	not active	not active	–	–
CC[C@H]1OC(=O)[C@H](C)[C@@H](O)[C@H](C)[C@@H](O[C@@H]2O[C@H](C)C[C@H]([N+](C)(C)[O-])[C@H]2O)C(C)(O)C[C@@H](C)/C(=N\O)[C@H](C)[C@@H](O)[C@]1(C)O (stereo partly shown) [Compound 12]	87.4	> 128	> 128	not active	> 128	not active	not active	–	–
CC[C@H]1OC(=O)[C@H](C)[C@@H](O)[C@H](C)[C@@H](O[C@@H]2O[C@H](C)C=C[C@H]2O)C(C)(O)C[C@@H](C)/C(=N\O)[C@H](C)[C@@H](O)[C@]1(C)O (stereo partly shown) [Compound 13]	77.4	> 128	> 128	not active	> 128	not active	not active	–	–
CC[C@H]1OC(=O)[C@H](C)[C@@H](O)[C@H](C)[C@@H](O[C@@H]2O[C@H](C)CC[C@H]2O)C(C)(O)C[C@@H](C)/C(=N\O)[C@H](C)[C@@H](O)[C@]1(C)O (stereo partly shown) [Compound 14]	71.5	–	–	–	–	–	–	15	–
CC[C@H]1OC(=O)[C@H](C)[C@@H](O)[C@H](C)[C@@H](O[C@@H]2O[C@H](C)C[C@H](N(C)C)[C@H]2O)C(C)(O)C[C@@H](C)/C(=N\OC)[C@H](C)[C@@H](O)[C@]1(C)O (stereo partly shown) [Compound 15]	31.6	–	–	not active	–	not active	not active	–	–
CC[C@H]1OC(=O)[C@H](C)[C@@H](O)[C@H](C)[C@@H](O[C@@H]2O[C@H](C)C[C@H]([N+](C)(C)[O-])[C@H]2O)C(C)(O)C[C@@H](C)/C(=N\OC)[C@H](C)[C@@H](O)[C@]1(C)O (stereo partly shown) [Compound 16]	72.3	–	–	–	–	–	–	–	–
CC[C@H]1OC(=O)[C@H](C)[C@@H](O)[C@H](C)[C@@H](O[C@@H]2O[C@H](C)C=C[C@H]2O)C(C)(O)C[C@@H](C)/C(=N\OC)[C@H](C)[C@@H](O)[C@]1(C)O (stereo partly shown) [Compound 17]	41.9	–	–	–	–	–	–	–	–
CC[C@H]1OC(=O)[C@H](C)[C@@H](O)[C@H](C)[C@H](O[C@@H]2O[C@H](C)CC([N+](C)(C)[O-])[C@@H]2O)[C@](C)(O)C[C@@H](C)/C(=N\OCCNCCNCc2nccs2)[C@H](C)[C@H](O)[C@]1(C)O (stereo partly shown) [Compound 20]	–	> 128	> 128	–	> 128	–	–	–	49.9
CC[C@H]1OC(=O)[C@H](C)[C@@H](O)[C@H](C)[C@H](O[C@@H]2O[C@H](C)CC[C@@H]2O)[C@](C)(O)C[C@@H](C)/C(=N\OCCNCCNCc2nccs2)[C@H](C)[C@H](O)[C@]1(C)O [Compound 21]	–	> 128	> 128	not active	> 128	not active	not active	–	74.1
CC[C@H]1OC(=O)[C@H](C)[C@@H](O)[C@H](C)[C@@H](O[C@@H]2O[C@H](C)CC[C@H]2O)C(C)(O)C[C@@H](C)/C(=N\OCCNCCNCc2ccco2)[C@H](C)[C@@H](O)[C@]1(C)O (stereo partly shown) [Compound 26]	–	–	–	not active	–	not active	not active	–	–
CC[C@H]1OC(=O)[C@H](C)[C@@H](O)[C@H](C)[C@@H](O[C@@H]2O[C@H](C)C[C@H](N(C)C)[C@H]2O)C(C)(OC)C[C@@H](C)[C@H](O)[C@H](C)[C@@H](O)[C@]1(C)O (stereo partly shown) [Compound 27]	–	> 128	> 128	–	> 128	–	–	–	–
CC[C@H]1OC(=O)[C@H](C)[C@@H](O)[C@H](C)[C@H](OC2O[C@H](C)C[C@H](N(C)C(C)=O)[C@@H]2O)C(C)(OC)C[C@H](C)/C(=N\O)[C@H](C)[C@@H](O)[C@]1(C)O (stereo partly shown) [Compound 29]	44.5	–	–	–	–	–	–	–	–
CC[C@H]1OC(=O)[C@H](C)[C@@H](O)[C@H](C)[C@H](OC2O[C@H](C)C[C@H](N(C)CCCOCc3cccnc3)[C@@H]2O)C(C)(O)C[C@H](C)[C@H](O)[C@H](C)[C@@H](O)[C@]1(C)O (stereo partly shown) [Compound 30]	39.8	–	–	–	–	–	–	–	–

— patent US7488811B2, “Macrolide compounds endowed with antiinflammatory activity” (Zambon Group S.p.A., priority 2002, dated 2009)
